What all share (assay): NCI-60 cell line screen, 48 h
Assay [1] concerns HCT-15 colon.
Assay [2] deals with RPMI-8226 leukemia.
Assay [3] concerns UO-31 renal.
The test system of assay [4] is MOLT-4 leukemia.
For assay [5], the system named is SK-MEL-2 melanoma.
The subject of assay [6] is SN12C renal.
Assay [7] concerns SK-MEL-28 melanoma.
Assay [8] concerns UACC-257 melanoma.
Assay [9] relates to SW-620 colon.
Assay [10] relates to RXF 393 renal.

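Method: 48-hour compound exposure of cells in 96-well plates, five concentrations, linear interpolation of endpoints. The concentration for 50% growth inhibition is given as GI50. TGI: total growth inhibition.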

Take `O=C(O)/C(Cl)=C(\Cl)C(=O)Nc1ccc(Cl)c(Cl)c1Cl`: the TGI in assay [1] was 34.8 µM; in [2], 88.3 µM; in assay [3] it was 30 µM; in assay [4], 59.7 µM; in assay [5], 33.9 µM; in assay [6], 36.7 µM. Further, the figures for the TGI in assay [7], in assay [8] and in assay [9] were 42.7 µM, 36.2 µM and 35.3 µM, respectively.
As to `CC1(C)C2CCC13CS(=O)(=O)N1O[C@]13C(=O)O2` (some centres undefined), the TGI in [1], in [2], in assay [3], in assay [4], in assay [5] and in assay [6] was more than 100 µM in each case. The TGI in [7], in assay [8] and in assay [9] was more than 100 µM each time.
`CCOC(=O)C(=O)Nc1cc(Cl)ccc1Cl`: the TGI in [1], in assay [2], in assay [3], in [4], in assay [5] and in [6] was more than 100 µM in each case. Also, the TGI in [7], in assay [8] and in assay [9] was more than 100 µM each time.
For `CCCCCCN(N)C(=O)CC#N`, the TGI in assay [1] is more than 100 µM; in [2] it was 58.5 µM; in assay [3] it was more than 100 µM; in [4], more than 100 µM; in assay [6], more than 100 µM; in assay [10], 94.8 µM. Moreover, the TGI in [7], in assay [8] and in assay [9] was more than 100 µM in each case.
For the compound `N#Cc1ccc(N=Cc2c([O-])ccc3ccccc23)cc1.[C-]#[O+].[C-]#[O+].[Ir]`, the GI50 in [2] is 5 µM; in assay [3] it was 13.2 µM; in assay [4] it was 4.16 µM; in [6], 13.2 µM; in [7], 10.4 µM; in assay [8] it was 10.6 µM. The GI50 in [9] is 1.93 µM. In addition, the TGI in assay [2] came to 25.1 µM; in assay [3], 26.1 µM; in assay [4], 19.3 µM; in assay [6] it was 27.5 µM; in assay [7] it was 22.1 µM; in [8], 29 µM. The same compound had a TGI in assay [9] of 4.09 µM.
With `BrCc1ccc(CBr)cc1`, the GI50 is 5.44 µM in assay [1]; 3.1 µM in assay [2]; 7.58 µM in assay [3]; 2.11 µM in assay [4]; 2.2 µM in [6]; 5.61 µM in assay [10]. The figures for the GI50 in [7], in [8] and in [9] were 8.29 µM, 14 µM and 5.1 µM, respectively. For the same compound, the TGI in assay [1] was more than 75.2 µM; in assay [2], 13.3 µM; in assay [3] it was more than 63.2 µM; in [6] it was 6.27 µM; in [10] it was 16.2 µM; in assay [7], 23.3 µM. The TGI stood at 38.9 µM in assay [8] and 17.6 µM in assay [9].
As for `COc1ccc(/C=N/NC(=O)Cn2c(-c3ccc(S(C)(=O)=O)cc3)nc3cc(Cl)ccc32)cc1`, the GI50 in [1] was 0.653 µM; in [2] it was 1.43 µM; in assay [3], 3.45 µM; in [4], 2.11 µM; in [5], 1.13 µM; in [6], 2.59 µM. Besides, the GI50 was 4.48 µM in assay [7], more than 50 µM in [8] and 1.21 µM in [9]. Also, the TGI is more than 50 µM in assay [1]; 11.4 µM in assay [2]; more than 50 µM in assay [3]; more than 50 µM in assay [4]; more than 50 µM in assay [5]; more than 50 µM in [6]. Besides, the TGI in assay [7], in assay [8] and in assay [9] was more than 50 µM throughout.
`O=c1[nH]cnc2c(C3NC(CO)C(O)C3O)c[nH]c12` (centres undefined): the GI50 in assay [1], in assay [2], in [3], in [6], in [10] and in assay [7] was more than 100 µM throughout. The GI50 in assay [8] and in [9] was more than 100 µM throughout. The TGI in assay [1], in [2], in assay [3], in assay [6], in assay [10] and in [7] was more than 100 µM each time. Also, the TGI in [8] and in assay [9] was more than 100 µM throughout.
As for `COc1ccc2c(c1)OC1=C(C(=O)OC1)C2c1cc(OC)c2c(c1)OCO2` (centres undefined), the GI50 in assay [1] was 0.0464 µM; in [2], 0.0487 µM; in assay [3], 0.689 µM; in assay [4], 0.0737 µM; in [5] it was 0.0405 µM; in [6] it was 0.102 µM. The GI50 was 0.0342 µM in [7], more than 46.1 µM in assay [8] and 0.0407 µM in [9]. For the same compound, the TGI in [1], in assay [2], in [3], in assay [4], in assay [5] and in assay [6] was more than 100 µM in each case. Also, the TGI in assay [7], in assay [8] and in assay [9] was more than 100 µM throughout.

(Values after PubChem BioAssay (NCI).)
